Test results reported in ChEMBL document CHEMBL6134843, “HDAC11 Inhibition as a Potential Therapeutic Strategy for AML: Target Identification, Lead Discovery, Antitumor Potency, and Mechanism Investigation” (J Med Chem, 2025).
pIC50: −log10 of the molar value. Calls of active or inactive are those of the source. The calls are words filed in the database; no cut-off is given here.

Experiments:
[1] = biological target: T1, Histone deacetylase 11 (Homo sapiens, UniProt Q96DB2); test: Inhibition of full length human recombinant HDAC11 (1 to 347 end residues) expressed in Sf9 cells using AcetylETDKmyr-AMC as substrate preincubated with enzyme for 1 hr followed by substrate addition and measured after 30 mins by fluorescence analysis
T1 sequence (Q96DB2 whole entry): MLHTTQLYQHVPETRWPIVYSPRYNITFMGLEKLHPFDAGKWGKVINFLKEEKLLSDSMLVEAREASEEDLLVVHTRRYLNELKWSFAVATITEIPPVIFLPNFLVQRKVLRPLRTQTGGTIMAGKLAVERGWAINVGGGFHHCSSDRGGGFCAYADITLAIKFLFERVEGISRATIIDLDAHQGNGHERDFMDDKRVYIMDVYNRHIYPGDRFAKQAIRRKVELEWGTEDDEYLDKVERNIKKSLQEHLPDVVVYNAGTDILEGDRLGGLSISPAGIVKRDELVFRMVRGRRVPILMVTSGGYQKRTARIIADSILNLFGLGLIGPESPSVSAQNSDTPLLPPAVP

[2] = biological target: T2, Protein deacetylase HDAC6 (Homo sapiens, UniProt Q9UBN7); test: Inhibition of N-terminal GST-tagged full length human recombinant HDAC6 (1 to 1215 end residues) expressed in Sf9 cells using Boc-Lys-(acetyl)-AMC as substrate preincubated with enzyme for 1 hr followed by substrate addition and measured after 30 mins by fluorescence analysis
T2 sequence (Q9UBN7 whole entry): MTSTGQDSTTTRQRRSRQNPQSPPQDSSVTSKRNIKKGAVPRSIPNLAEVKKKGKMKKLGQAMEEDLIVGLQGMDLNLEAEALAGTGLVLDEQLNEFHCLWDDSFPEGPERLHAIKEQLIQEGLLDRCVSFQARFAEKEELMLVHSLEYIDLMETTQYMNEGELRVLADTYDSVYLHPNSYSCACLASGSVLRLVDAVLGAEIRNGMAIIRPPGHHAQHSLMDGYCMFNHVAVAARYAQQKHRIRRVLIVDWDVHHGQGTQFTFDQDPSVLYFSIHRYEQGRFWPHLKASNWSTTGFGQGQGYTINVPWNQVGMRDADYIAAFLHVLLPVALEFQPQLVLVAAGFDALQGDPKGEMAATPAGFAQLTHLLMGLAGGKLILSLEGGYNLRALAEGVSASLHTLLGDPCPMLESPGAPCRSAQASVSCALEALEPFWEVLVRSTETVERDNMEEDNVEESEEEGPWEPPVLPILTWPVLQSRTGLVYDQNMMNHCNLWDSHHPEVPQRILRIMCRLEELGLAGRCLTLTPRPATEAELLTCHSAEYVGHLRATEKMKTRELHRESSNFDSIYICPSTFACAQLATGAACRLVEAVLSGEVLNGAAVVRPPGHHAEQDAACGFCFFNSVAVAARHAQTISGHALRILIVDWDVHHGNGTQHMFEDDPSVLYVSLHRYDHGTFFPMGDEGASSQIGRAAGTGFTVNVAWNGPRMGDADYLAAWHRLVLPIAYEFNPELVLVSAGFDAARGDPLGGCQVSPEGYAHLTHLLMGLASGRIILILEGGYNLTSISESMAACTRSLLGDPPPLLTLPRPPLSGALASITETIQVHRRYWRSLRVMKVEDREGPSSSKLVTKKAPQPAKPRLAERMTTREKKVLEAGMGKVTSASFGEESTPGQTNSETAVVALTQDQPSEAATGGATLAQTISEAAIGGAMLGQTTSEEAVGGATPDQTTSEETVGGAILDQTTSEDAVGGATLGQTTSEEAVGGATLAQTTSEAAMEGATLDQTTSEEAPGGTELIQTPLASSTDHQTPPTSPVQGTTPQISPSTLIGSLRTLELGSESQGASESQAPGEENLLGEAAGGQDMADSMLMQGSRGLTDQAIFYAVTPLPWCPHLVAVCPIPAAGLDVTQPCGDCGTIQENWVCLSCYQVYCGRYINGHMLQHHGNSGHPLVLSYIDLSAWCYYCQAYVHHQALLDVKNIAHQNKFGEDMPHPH

[3] = biological target: Histone deacetylase 1 (Homo sapiens, UniProt Q13547); test: Inhibition of C-terminal 6xHis/FLAG-tagged full length human recombinant HDAC1 (1 to 482 end residues) expressed in Sf9 cells using Boc-Lys-(acetyl)-AMC as substrate preincubated with enzyme for 1 hr followed by substrate addition and measured after 30 mins by fluorescence analysis
[4] = biological target: Histone deacetylase 4 (Homo sapiens, UniProt P56524); test: Inhibition of N-terminal GST-tagged C-terminal His-tagged human HDAC4 (627 to 1084 end residues) expressed in baculovirus expression system in Sf9 cells using Boc-Lys-(trifluoroacetyl)-AMC as substrate preincubated with enzyme for 1 hr followed by substrate addition and measured after 30 mins by fluorescence analysis
[5] = biological target: T3, Histone deacetylase 8 (Homo sapiens, UniProt Q9BY41); test: Inhibition of C-terminal His-tagged full length human recombinant HDAC8 (1 to 377 end residues) expressed in Sf9 cells using Boc-Lys-(trifluoroacetyl)-AMC as substrate preincubated with enzyme for 1 hr followed by substrate addition and measured after 30 mins by fluorescence analysis
T3 sequence (Q9BY41 whole entry): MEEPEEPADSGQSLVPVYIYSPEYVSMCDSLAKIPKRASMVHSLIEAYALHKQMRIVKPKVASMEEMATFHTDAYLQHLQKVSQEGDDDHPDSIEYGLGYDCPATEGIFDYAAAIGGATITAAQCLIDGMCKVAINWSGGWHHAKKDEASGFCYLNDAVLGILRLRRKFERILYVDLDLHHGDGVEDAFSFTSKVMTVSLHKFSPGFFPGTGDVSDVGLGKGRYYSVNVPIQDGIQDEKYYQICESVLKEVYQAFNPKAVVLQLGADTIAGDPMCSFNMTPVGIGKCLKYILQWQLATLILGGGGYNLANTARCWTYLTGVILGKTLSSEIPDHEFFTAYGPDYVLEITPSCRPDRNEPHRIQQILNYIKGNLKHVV

[6] = test system: U-937; test: Antitumor activity against human U-937 cells assessed as cell growth inhibition incubated for 2 days by CCK-8 assay; details: U-937, 48 h
[7] = test system: OCI-AML2; test: Antiproliferative activity against human OCI-AML2 cells assessed as cell growth inhibition incubated for 2 days by CCK-8 assay; details: OCI-AML2, 48 h
[8] = biological target: T4, Histone deacetylase 11 (Homo sapiens) (UniProt Q96DB2); test: Inhibition of HDAC11 in human U-937 cells assessed as increase in SHMT2 fatty acylation level in presence of Alk14 at 100 uM incubated for 6 hrs by Western blot analysis; assay type: cell-based
T4 sequence (whole entry): T1 sequence (Q96DB2 whole entry)

[9] = test system: OCI-AML-3; test: Induction of cell apoptosis in human OCI-AML-3 cells at 100 uM incubated for 48 hrs by Annexin V/DAPI staining based flow cytometry analysis; assay type: functional
[10] = test system: THP-1; test: Induction of cell apoptosis in human THP-1 cells at 100 uM incubated for 48 hrs by Annexin V/DAPI staining based flow cytometry analysis; assay type: functional
[11] = test system: U-937; test: Induction of ferroptosis in human U-937 cells assessed as increase in lipid peroxidation accumulation at 100 uM incubated for 48 hrs by C11-BODIPY 581/591 staining based flow cytometry analysis; assay type: functional, cell-based
[12] = test system: U-937; test: Induction of ferroptosis in human U-937 cells assessed as increase in ferrous ion accumulation at 5 uM incubated for 48 hrs by RhoNox-1 staining based flow cytometry analysis; assay type: functional, cell-based
[13] = test system: U-937; test: Induction of ferroptosis in human U-937 cells assessed as increase in ferrous ion accumulation at 100 uM incubated for 48 hrs by RhoNox-1 staining based flow cytometry analysis; assay type: functional, cell-based
[14] = test system: OCI-AML2; test: Induction of ferroptosis in human OCI-AML2 cells assessed as increase in ferrous ion accumulation at 5 uM incubated for 48 hrs by RhoNox-1 staining based flow cytometry analysis; assay type: functional, cell-based
[15] = test system: OCI-AML2; test: Induction of ferroptosis in human OCI-AML2 cells assessed as increase in ferrous ion accumulation at 100 uM incubated for 48 hrs by RhoNox-1 staining based flow cytometry analysis; assay type: functional, cell-based
[16] = Antitumor activity against mouse MLL-AF9 cells allografted in female C57BL/6 mouse model assessed as GFP positive leukemic cells in peripheral blood at 50 mg/kg, ip administered once daily for 26 days by FITC staining based analysis (reference value: 30.6 %); assay type: functional; details: time 26 day
[17] = Antitumor activity against mouse MLL-AF9 cells allografted in female C57BL/6 mouse model assessed as GFP positive leukemic cells in peripheral blood at 50 mg/kg, ip administered once daily for 32 days by FITC staining based analysis (reference value: 72.5 %); assay type: functional; details: time 32 day

Sequence of Histone deacetylase 4 (P56524 whole entry): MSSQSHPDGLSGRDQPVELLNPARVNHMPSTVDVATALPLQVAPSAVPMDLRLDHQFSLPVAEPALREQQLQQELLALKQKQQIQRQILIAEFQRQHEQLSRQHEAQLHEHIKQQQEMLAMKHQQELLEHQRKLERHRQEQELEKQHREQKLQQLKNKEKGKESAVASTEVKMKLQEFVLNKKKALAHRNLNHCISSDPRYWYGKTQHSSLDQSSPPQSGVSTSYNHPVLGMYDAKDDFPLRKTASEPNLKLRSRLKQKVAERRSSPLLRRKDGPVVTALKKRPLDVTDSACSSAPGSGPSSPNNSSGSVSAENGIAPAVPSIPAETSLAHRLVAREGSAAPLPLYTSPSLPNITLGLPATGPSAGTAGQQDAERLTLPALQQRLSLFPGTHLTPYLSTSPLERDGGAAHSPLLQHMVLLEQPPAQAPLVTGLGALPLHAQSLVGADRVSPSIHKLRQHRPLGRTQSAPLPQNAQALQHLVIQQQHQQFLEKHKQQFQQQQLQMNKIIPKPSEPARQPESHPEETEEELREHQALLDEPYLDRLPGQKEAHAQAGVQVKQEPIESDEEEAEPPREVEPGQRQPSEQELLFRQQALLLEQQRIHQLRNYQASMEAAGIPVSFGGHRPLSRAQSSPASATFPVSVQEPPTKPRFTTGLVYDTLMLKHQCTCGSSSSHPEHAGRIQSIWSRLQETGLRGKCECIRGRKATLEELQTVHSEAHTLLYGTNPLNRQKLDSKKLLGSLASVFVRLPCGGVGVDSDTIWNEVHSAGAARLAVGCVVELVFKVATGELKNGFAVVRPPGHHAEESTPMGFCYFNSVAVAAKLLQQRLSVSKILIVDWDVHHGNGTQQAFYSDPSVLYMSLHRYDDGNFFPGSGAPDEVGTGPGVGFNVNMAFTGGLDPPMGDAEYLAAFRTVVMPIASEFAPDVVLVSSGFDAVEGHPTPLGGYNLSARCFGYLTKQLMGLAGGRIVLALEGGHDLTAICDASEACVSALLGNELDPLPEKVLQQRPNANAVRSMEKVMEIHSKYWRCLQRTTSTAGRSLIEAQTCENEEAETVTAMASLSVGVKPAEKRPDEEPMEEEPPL
Sequence of Histone deacetylase 1 (Q13547 whole entry): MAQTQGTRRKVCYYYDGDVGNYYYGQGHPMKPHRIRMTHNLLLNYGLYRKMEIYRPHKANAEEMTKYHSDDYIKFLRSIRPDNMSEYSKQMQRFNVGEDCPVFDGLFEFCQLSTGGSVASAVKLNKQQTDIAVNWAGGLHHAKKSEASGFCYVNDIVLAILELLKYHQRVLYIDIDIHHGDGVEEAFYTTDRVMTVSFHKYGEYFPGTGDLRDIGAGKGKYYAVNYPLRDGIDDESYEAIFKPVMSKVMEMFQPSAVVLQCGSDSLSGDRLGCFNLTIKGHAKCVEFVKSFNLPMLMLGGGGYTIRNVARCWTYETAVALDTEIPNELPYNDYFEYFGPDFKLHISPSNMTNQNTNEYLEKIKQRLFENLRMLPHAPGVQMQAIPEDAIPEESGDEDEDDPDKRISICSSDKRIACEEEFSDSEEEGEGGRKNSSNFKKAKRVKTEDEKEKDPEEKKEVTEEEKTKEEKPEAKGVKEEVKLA

Work on `CCCCCCCCCCCCCCCCNNC(=O)c1cccs1` yielded a pIC50 [1] of 6.43, a pIC50 [2] of 4.11 and a pIC50 [3] of 4.03. The pIC50 [4] was < 4.00, the pIC50 [5] was < 4.00 and the pIC50 [6] was ~3.82. The pIC50 [7] was ~3.82, the inhibition [8] was “Active” and the Activity [9] was “Active”. The Activity [10] was “Active”, the Activity [11] was “Active” and the Activity [12] was “Active”. For the same compound, the Activity [13] was “Active”, the Activity [14] was “Active” and the Activity [15] was “Active”.
For `O=C(NO)c1cccc2[nH]c(C#Cc3ccccc3)cc12`, the pIC50 [4] was < 4.00.
With `Nc1ccn([C@@H]2O[C@H](CO)[C@@H](O)[C@@H]2O)c(=O)n1` [CYTARABINE] the Activity [16] was 5.81% and the Activity [17] was 13.2%.
